The results in this text go back to patent US9540391B2, “Isomannide derivatives as inhibitors of soluble epoxide hydrolase” (SANOFI, priority 2013, dated 2017).

The structures appear in SMILES notation. Where a name gives a salt, the structure may show the parent alone.

The target in this assay is T1, recombinant sEH (Homo sapiens, UniProt P34913).
T1 construct: made in house; host or cells: Sf9 insect cells
T1 sequence (P34913 1-555): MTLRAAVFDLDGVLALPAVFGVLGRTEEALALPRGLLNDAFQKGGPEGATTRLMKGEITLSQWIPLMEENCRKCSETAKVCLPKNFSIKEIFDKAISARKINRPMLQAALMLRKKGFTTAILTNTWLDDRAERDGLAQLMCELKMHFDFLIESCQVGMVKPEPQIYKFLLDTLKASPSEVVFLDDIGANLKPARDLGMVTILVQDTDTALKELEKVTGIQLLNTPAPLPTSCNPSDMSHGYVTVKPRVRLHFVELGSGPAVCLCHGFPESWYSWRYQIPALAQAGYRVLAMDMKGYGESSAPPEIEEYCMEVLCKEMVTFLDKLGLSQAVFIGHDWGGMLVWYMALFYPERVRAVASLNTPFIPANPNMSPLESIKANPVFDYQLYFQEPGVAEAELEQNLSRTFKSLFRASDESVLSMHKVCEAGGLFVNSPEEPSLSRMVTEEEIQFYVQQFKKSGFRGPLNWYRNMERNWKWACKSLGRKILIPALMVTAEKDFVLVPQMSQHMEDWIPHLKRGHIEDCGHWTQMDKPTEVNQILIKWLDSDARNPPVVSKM
The assay is described as follows: biochemical screening assay for inhibition of soluble epoxide hydrolase (fluorometric, Phome substrate). Put shortly: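 Reading fluorescence before substrate addition and after completion corrected for autofluorescence. Reaction: 5 μM Phome, 2 nM recombinant human sEH (Sf9-expressed), compound 0.0001–10 μM, 25 mM Hepes with 0.01% albumin, 15 min pre-incubation then 60 min at 30 °C; IC50 derived from % inhibition.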
Regarding `NC[C@H]1CO[C@H]2[C@@H]1OC[C@@H]2NC(=O)NC1CCCCC1` [Example 8, 1-((3S,3aR,6S,6aR)-6-aminomethyl-hexahydro-furo[3,2-b]furan-3-yl)-3-cyclohexyl-urea; trifluoroacetate], the IC50 (in general, the concentration needed to halve the response being measured) is 14500 nM.
In the case of `Cc1ccc(O[C@H]2CO[C@H]3[C@@H]2OC[C@@H]3NC(=O)NC2CCCCC2)c(C)n1` [Example 34, 1-Cyclohexyl-3-[(3S,3aR,6S,6aS)-6-(2,6-dimethyl-pyridin-3-yloxy)-hexahydro-furo[3,2-b]furan-3-yl]-urea], the IC50 is 2 nM.
For `CC(=O)Nc1cccc(O[C@H]2CO[C@H]3[C@@H]2OC[C@@H]3NC(=O)NC2CCCCC2)c1` [Example 102, N-{3-[(3S,3aS,6S,6aR)-6-(3-Cyclohexyl-ureido)-hexahydro-furo[3,2-b]furan-3-yloxy]-phenyl}-acetamide] the value was 2 nM; for `CCOC(=O)CC[C@H]1CO[C@H]2[C@@H]1OC[C@@H]2NC(=O)NC1CCCCC1` [Example 376, 3-[(3S,3aR,6S,6aR)-6-(3-Cyclohexyl-ureido)-hexahydro-furo[3,2-b]furan-3-yl]-propionic acid ethyl ester], 26 nM; for `CCCCOc1ccc(NC(=O)NC2COC3C(CCc4ccccc4)COC23)cc1` [Example 351, 1-(4-Butoxy-phenyl)-3-[(3S,3aR,6R)-6-((S)-phenethyl)-hexahydro-furo[3,2-b]furan-3-yl]-urea], 161 nM.
As for `Cc1ncccc1O[C@H]1CO[C@H]2[C@@H]1OC[C@@H]2NC(=O)NCC1COc2ccccc2O1` (stereo partly drawn) [Example 196, 1-(2,3-Dihydro-benzo[1,4]dioxin-2-ylmethyl)-3-[(3S,3aR,6S,6aS)-6-(2-methyl-pyridin-3-yloxy)-hexahydro-furo[3,2-b]furan-3-yl]-urea], the IC50 was found to be 26 nM.
The same measure for `Cc1cccc(CNC(=O)N[C@H]2CO[C@H]3[C@@H]2OC[C@@H]3C#Cc2ccsc2)c1` [Example 305, 1-(3-Methyl-benzyl)-3-((3S,3aR,6S,6aR)-6-thiophen-3-ylethynyl-hexahydro-furo[3,2-b]furan-3-yl)-urea]: 243 nM; for `Cc1ncccc1O[C@H]1CO[C@H]2[C@@H]1OC[C@@H]2NC(=O)NC(C)CN1CCCC1=O` (stereo partly drawn) [Example 244, 1-[1-Methyl-2-(2-oxo-pyrrolidin-1-yl)-ethyl]-3-[(3S,3aR,6S,6aS)-6-(2-methyl-pyridin-3-yloxy)-hexahydro-furo[3,2-b]furan-3-yl]-urea]: 577 nM; for `Cc1ncccc1O[C@H]1CO[C@H]2[C@@H]1OC[C@@H]2NC(=O)NC1CC(C)(C)CC(C)(C)C1` [Example 273, 1-[(3S,3aR,6S,6aS)-6-(2-Methyl-pyridin-3-yloxy)-hexahydro-furo[3,2-b]furan-3-yl]-3-(3,3,5,5-tetramethyl-cyclohexyl)-urea]: 1 nM.
For `O=C(NC1CCCCC1)N[C@H]1CO[C@H]2[C@@H]1OC[C@@H]2Oc1ccc(N2CCC(F)(F)CC2)nc1` [Example 71, 1-Cyclohexyl-3-[(3S,3aR,6S,6aS)-6-(4,4-difluoro-3,4,5,6-tetrahydro-2H-[1,2′]bipyridinyl-5′-yloxy)-hexahydro-furo[3,2-b]furan-3-yl]-urea] the value was 7 nM.
Consider `O=C(NC1CCCCC1)N(Cc1ccccc1)[C@H]1CO[C@@H]2[C@@H](CO)CO[C@@H]21` [Example 6, 1-benzyl-3-cyclohexyl-1-((3S,3aR,6S,6aR)-6-hydroxymethyl-hexahydro-furo[3,2-b]furan-3-yl)-urea], for which the IC50 came to 8000 nM.
Regarding `Cc1ncccc1O[C@H]1CO[C@H]2[C@@H]1OC[C@@H]2NC(=O)NC1CCCN(C(=O)C(C)(C)C)C1` (stereo partly drawn) [Example 88, 1-[1-(2,2-Dimethyl-propionyl)-piperidin-3-yl]-3-[(3S,3aR,6S,6aS)-6-(2-methyl-pyridin-3-yloxy)-hexahydro-furo[3,2-b]furan-3-yl]-urea], the IC50 stood at 53 nM.
Consider `O=C(NC1CCCCC1)N[C@H]1CO[C@H]2[C@@H]1OC[C@@H]2Oc1cccc(Oc2ccccc2)c1` [Example 27, 1-Cyclohexyl-3-[(3S,3aR,6S,6aS)-6-(3-phenoxy-phenoxy)-hexahydro-furo[3,2-b]furan-3-yl]-urea], for which the IC50 turned out to be 3 nM.
In the case of `O=C(Nc1ccc2c(c1)OCCO2)N[C@H]1CO[C@H]2[C@@H]1OC[C@@H]2/C=C\c1ccccc1` [Example 318, 1-(2,3-Dihydro-benzo[1,4]dioxin-6-yl)-3-[(3S,3aR,6S,6aR)-6-((Z)-styryl)-hexahydro-furo[3,2-b]furan-3-yl]-urea], the IC50 was found to be 227 nM.
The same measure for `O=C(NC1CCCCC1)N[C@H]1CO[C@H]2[C@@H]1OC[C@@H]2Oc1ccccc1C(=O)N1CCOCC1` [Example 134, 1-Cyclohexyl-3-{(3S,3aR,6S,6aS)-6-[2-(morpholine-4-carbonyl)-phenoxy]-hexahydro-furo[3,2-b]furan-3-yl}-urea]: 20 nM; for `Cc1ncccc1O[C@H]1CO[C@H]2[C@@H]1OC[C@@H]2NC(=O)NCCOC(C)(C)C` [Example 217, 1-(2-tert-Butoxy-ethyl)-3-[(3S,3aR,6S,6aS)-6-(2-methyl-pyridin-3-yloxy)-hexahydro-furo[3,2-b]furan-3-yl]-urea]: 371 nM.
The same measure for `Cc1ncccc1O[C@H]1CO[C@H]2[C@@H]1OC[C@@H]2NC(=O)NC(C)(C)Cc1ccc(F)cc1` [Example 185, 1-[2-(4-Fluoro-phenyl)-1,1-dimethyl-ethyl]-3-[(3S,3aR,6S,6aS)-6-(2-methyl-pyridin-3-yloxy)-hexahydro-furo[3,2-b]furan-3-yl]-urea]: 29 nM; for `O=C(Nc1cccc(C(F)(F)F)c1)N[C@H]1CO[C@@H]2[C@@H](CCc3ccsc3)CO[C@@H]21` [Example 375, 1-[(3S,3aR,6S,6aR)-6-(2-Thiophen-3-yl-ethyl)-hexahydro-furo[3,2-b]furan-3-yl]-3-(3-trifluoromethyl-phenyl)-urea]: 17 nM.
The same measure for `O=C(NCCc1cccs1)N[C@H]1CO[C@@H]2[C@@H](CCc3ccccc3)CO[C@@H]21` [Example 370, 1-((3S,3aR,6S,6aR)-6-Phenethyl-hexahydro-furo[3,2-b]furan-3-yl)-3-(2-thiophen-2-yl-ethyl)-urea]: 43 nM.
For the compound `Cc1ncccc1O[C@H]1CO[C@H]2[C@@H]1OC[C@@H]2NC(=O)NC1CCCNC1` (stereo partly drawn) [Example 82, 1-[(3S,3aR,6S,6aS)-6-(2-methyl-pyridin-3-yloxy)-hexahydro-furo[3,2-b]furan-3-yl]-3-piperidin-3-yl-urea; hydrochloride], the IC50 amounted to 2620 nM.
With `Cc1csc(CNC(=O)N[C@H]2CO[C@H]3[C@@H]2OC[C@@H]3Oc2cccnc2C)n1` [Example 199, 1-[(3S,3aR,6S,6aS)-6-(2-Methyl-pyridin-3-yloxy)-hexahydro-furo[3,2-b]furan-3-yl]-3-(4-methyl-thiazol-2-ylmethyl)-urea], the IC50 stood at 2070 nM.
With `CCC(OC)(c1cccc(O[C@H]2CO[C@H]3[C@@H]2OC[C@@H]3NC(=O)NC2CCCCC2)c1)c1nccs1` (stereo partly drawn) [Example 122, 1-Cyclohexyl-3-{(3S,3aR,6S,6aS)-6-[3-(1-methoxy-1-thiazol-2-yl-propyl)-phenoxy]-hexahydro-furo[3,2-b]furan-3-yl}-urea], the IC50 came out at 2 nM.
For `O=C(Nc1ccccc1)NC1COC2C(CCc3ccccc3)COC12` [Example 354, 1-[(3S,3aR,6R)-6-((S)-Phenethyl)-hexa-hydro-furo[3,2-b]furan-3-yl]-3-phenyl-urea], the IC50 is 127 nM.
For `O=C(NC1CCCCC1)N[C@H]1CO[C@H]2[C@@H]1OC[C@@H]2Oc1cccc(-n2cnnc2)c1` [Example 30, 1-Cyclohexyl-3-[(3S,3aR,6S,6aS)-6-(3-[1,2,4]triazol-4-yl-phenoxy)-hexahydro-furo[3,2-b]furan-3-yl]-urea] the value was 2 nM; for `O=C(Nc1cccc(C(F)(F)F)c1)N[C@H]1CO[C@H]2[C@@H]1OC[C@@H]2/C=C\c1ccccc1` [Example 333, 1-[(3S,3aR,6S,6aR)-6-((Z)-Styryl)-hexahydro-furo[3,2-b]furan-3-yl]-3-(3-trifluoromethyl-phenyl)-urea], 44 nM; for `O=C(Nc1ccc2c(c1)OCCO2)NC1COC2C(C#Cc3ccccc3)COC12` [Example 295, 1-(2,3-Dihydro-benzo[1,4]-dioxin-6-yl)-3-((3S,3aR,6S,-6aR)-6-phenylethynyl-hexa-hydro-furo[3,2-b]furan-3-yl)-urea], 112 nM.
`N#CCc1cccc(O[C@H]2CO[C@H]3[C@@H]2OC[C@@H]3NC(=O)NC2CCCCC2)c1` [Example 117, 1-[(3S,3aR,6S,6aS)-6-(3-Cyano-methyl-phenoxy)-hexahydro-furo-[3,2-b]furan-3-yl]-3-cyclohexyl-urea]: the IC50 turned out to be 5 nM.
Regarding `Cc1ncccc1O[C@H]1CO[C@H]2[C@@H]1OC[C@@H]2NC(=O)NC1CCC(C)(C)CC1` [Example 268, 1-(4,4-Dimethyl-cyclohexyl)-3-[(3S,3aR,6S,6aS)-6-(2-methyl-pyridin-3-yloxy)-hexahydro-furo[3,2-b]furan-3-yl]-urea], the IC50 came to 2 nM.
On to `O=C(N[C@H]1CO[C@H]2[C@@H]1OC[C@@H]2Oc1ccc(F)cc1)N[C@@H]1CCCC[C@H]1OCc1ccccc1` [Example 164, 1-((1R,2R)-2-Benzyloxy-cyclohexyl)-3-[(3S,3aR,6S,6aS)-6-(4-fluoro-phenoxy)-hexahydro-furo[3,2-b]furan-3-yl]-urea], for which the half-maximal inhibitory concentration (IC50) is 487 nM.
